Usually Ki stands for the equilibrium dissociation constant of an inhibitor or competing ligand from its target.

Experimental findings from ChEMBL document CHEMBL5338821, “6-Substituted Triazolyl Benzoxaboroles as Selective Carbonic Anhydrase Inhibitors: In Silico Design, Synthesis, and X-ray Crystallography” (J Med Chem, 2023) are described below.

One assay addresses Carbonic anhydrase 1 (Homo sapiens, UniProt P00915). The assay is described as follows: Inhibition of recombinant human carbonic anhydrase I assessed as inhibition constant incubated for 15 mins by phenol red dye based stopped-flow CO2 hydration assay.
Another assay concerns the target Carbonic anhydrase 2 (Homo sapiens, UniProt P00918). The assay is described as follows: Inhibition of recombinant human carbonic anhydrase II assessed as inhibition constant incubated for 15 mins by phenol red dye based stopped-flow CO2 hydration assay.
The target of a further assay is Carbonic anhydrase 4 (Homo sapiens, UniProt P22748). Kind of assay: Inhibition of recombinant human carbonic anhydrase IV assessed as inhibition constant incubated for 15 mins by phenol red dye based stopped-flow CO2 hydration assay.
Sequence of Carbonic anhydrase 4 (P22748 whole entry): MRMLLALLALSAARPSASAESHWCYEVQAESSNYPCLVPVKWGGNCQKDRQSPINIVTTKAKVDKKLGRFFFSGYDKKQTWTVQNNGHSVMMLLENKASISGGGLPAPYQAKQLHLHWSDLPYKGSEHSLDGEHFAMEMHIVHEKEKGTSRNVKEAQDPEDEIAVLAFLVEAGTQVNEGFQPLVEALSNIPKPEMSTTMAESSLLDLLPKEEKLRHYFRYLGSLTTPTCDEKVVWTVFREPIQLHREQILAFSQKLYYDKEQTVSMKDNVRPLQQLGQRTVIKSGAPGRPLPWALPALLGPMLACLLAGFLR
A further assay addresses Carbonic anhydrase 7 (Homo sapiens, UniProt P43166). The assay is described as follows: Inhibition of recombinant human carbonic anhydrase VII assessed as inhibition constant incubated for 15 mins by phenol red dye based stopped-flow CO2 hydration assay.
Another assay concerns the target Carbonic anhydrase 9 (Homo sapiens, UniProt Q16790). The assay is described as follows: Inhibition of recombinant human carbonic anhydrase IX assessed as inhibition constant incubated for 15 mins by phenol red dye based stopped-flow CO2 hydration assay.
Assay [1] is filed under the species Homo sapiens. The assay is described as follows: Selectivity index, ratio of Ki for inhibition of recombinant human carbonic anhydrase I to Ki for inhibition of recombinant human carbonic anhydrase VII.
For assay [2], the species on record is Homo sapiens. The assay is described as follows: Selectivity index, ratio of Ki for inhibition of recombinant human carbonic anhydrase II to Ki for inhibition of recombinant human carbonic anhydrase VII.
Assay [3] is filed under the species Homo sapiens. The assay is described as follows: Selectivity index, ratio of Ki for inhibition of recombinant human carbonic anhydrase I to Ki for inhibition of recombinant human carbonic anhydrase IX.
For assay [4], the species on record is Homo sapiens. Kind of assay: Selectivity index, ratio of Ki for inhibition of recombinant human carbonic anhydrase II to Ki for inhibition of recombinant human carbonic anhydrase IX.

Sequence of Carbonic anhydrase 1 (P00915 whole entry): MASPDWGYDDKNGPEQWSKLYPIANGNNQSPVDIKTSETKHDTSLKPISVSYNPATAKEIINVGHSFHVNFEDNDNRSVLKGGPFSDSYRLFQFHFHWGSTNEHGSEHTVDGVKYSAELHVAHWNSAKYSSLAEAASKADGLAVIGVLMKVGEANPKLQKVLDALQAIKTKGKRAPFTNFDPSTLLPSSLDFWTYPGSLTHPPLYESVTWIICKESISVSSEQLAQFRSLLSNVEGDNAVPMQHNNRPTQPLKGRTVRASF
Sequence of Carbonic anhydrase 7 (P43166 whole entry): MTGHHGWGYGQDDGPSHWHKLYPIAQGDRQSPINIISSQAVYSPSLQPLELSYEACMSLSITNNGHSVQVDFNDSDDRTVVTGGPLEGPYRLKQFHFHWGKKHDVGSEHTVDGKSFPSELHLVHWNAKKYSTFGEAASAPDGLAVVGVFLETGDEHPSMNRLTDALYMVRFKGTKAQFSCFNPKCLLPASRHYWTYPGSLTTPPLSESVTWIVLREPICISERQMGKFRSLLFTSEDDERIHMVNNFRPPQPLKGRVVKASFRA

As for `OB1OCc2ccc(-n3cc(COc4ccccc4)nn3)cc21`, the Ki worked out at 343 nM on Carbonic anhydrase 1; 205 nM at Carbonic anhydrase 2; 1380 nM on Carbonic anhydrase 4; 56.2 nM at Carbonic anhydrase 7; 29.1 nM at Carbonic anhydrase 9.
For `COc1ccc(OCc2cn(-c3ccc4c(c3)B(O)OC4)nn2)cc1`, in that order: 863 nM, 258 nM, 1660 nM, 88.1 nM and 52 nM.
`OB1OCc2ccc(-n3cc(C4CC4)nn3)cc21`: the Ki stood at 2320 nM at Carbonic anhydrase 1; 1080 nM on Carbonic anhydrase 2; 3220 nM at Carbonic anhydrase 4; 474 nM on Carbonic anhydrase 7; 389 nM at Carbonic anhydrase 9.
As to `OB1OCc2ccc(-n3cc(CSc4ccccc4)nn3)cc21`, the Ki at Carbonic anhydrase 1 came out at 300 nM; on Carbonic anhydrase 2 it was 270 nM; at Carbonic anhydrase 4, 1610 nM; at Carbonic anhydrase 7, 49.2 nM; at Carbonic anhydrase 9, 33.2 nM. Moreover, the Ratio Ki in the assay listed under Homo sapiens [1] and in the assay listed under Homo sapiens [2] was 6 in each case.
Consider `O=C(O)c1cccc(-c2cn(-c3ccc4c(c3)B(O)OC4)nn2)c1`, for which the inhibition constant (Ki) on Carbonic anhydrase 1 came out at 505 nM; on Carbonic anhydrase 2, 310 nM; on Carbonic anhydrase 4 it was 749 nM; at Carbonic anhydrase 7, 67.5 nM; at Carbonic anhydrase 9, 114 nM.
Regarding `OCc1cn(-c2ccc3c(c2)B(O)OC3)nn1`, the inhibition constant Ki on Carbonic anhydrase 1 is 1090 nM; at Carbonic anhydrase 2, 873 nM; on Carbonic anhydrase 4 it was 928 nM; on Carbonic anhydrase 7, 141 nM; at Carbonic anhydrase 9, 145 nM.
For `O=c1ccc2ccc(OCc3cn(-c4ccc5c(c4)B(O)OC5)nn3)cc2o1`, the Ki was found to be 2600 nM at Carbonic anhydrase 1; 375 nM on Carbonic anhydrase 2; 3180 nM at Carbonic anhydrase 4; 70.2 nM at Carbonic anhydrase 7; 111 nM at Carbonic anhydrase 9.
On the same counts, the results for `OB1OCc2ccc(-n3cc(-c4ccccc4)nn3)cc21` are 740 nM, 362 nM, 1180 nM, 262 nM and 122 nM.
Consider `CCOC(=O)c1cn(-c2ccc3c(c2)B(O)OC3)nn1`, for which the Ki stood at 2510 nM at Carbonic anhydrase 1; 796 nM on Carbonic anhydrase 2; 2480 nM at Carbonic anhydrase 4; 441 nM on Carbonic anhydrase 7; 337 nM at Carbonic anhydrase 9.
Take `OB1OCc2ccc(-n3cc(COc4ccc(F)cc4)nn3)cc21`: the inhibitory constant (Ki) was determined as 336 nM on Carbonic anhydrase 1; 186 nM at Carbonic anhydrase 2; 1050 nM at Carbonic anhydrase 4; 35.6 nM on Carbonic anhydrase 7; 28 nM on Carbonic anhydrase 9. Moreover, the Ratio Ki in the assay listed under Homo sapiens [1], in the assay listed under Homo sapiens [2], in the assay filed under Homo sapiens [3] and in the assay listed under Homo sapiens [4] was 6 throughout.
For `OCCc1cn(-c2ccc3c(c2)B(O)OC3)nn1`, the inhibition constant Ki at Carbonic anhydrase 1 stood at 1460 nM; on Carbonic anhydrase 2, 494 nM; at Carbonic anhydrase 4, 497 nM; on Carbonic anhydrase 7, 81.7 nM; at Carbonic anhydrase 9, 70.4 nM.
For the compound `[N-]=[N+]=Nc1ccc2c(c1)B(O)OC2`, the Ki at Carbonic anhydrase 1 amounted to 3040 nM; at Carbonic anhydrase 2 it was 350 nM; at Carbonic anhydrase 4, 3120 nM; on Carbonic anhydrase 7, 432 nM; at Carbonic anhydrase 9, 539 nM.
With `CC(C)(C)OC(=O)NCc1cn(-c2ccc3c(c2)B(O)OC3)nn1`, the Ki on Carbonic anhydrase 1 was determined as 737 nM; at Carbonic anhydrase 2, 461 nM; on Carbonic anhydrase 4, 730 nM; at Carbonic anhydrase 7, 135 nM; at Carbonic anhydrase 9 it was 75.2 nM.
`COc1cccc(OCc2cn(-c3ccc4c(c3)B(O)OC4)nn2)c1`: the inhibition constant Ki at Carbonic anhydrase 1 came to 1100 nM; at Carbonic anhydrase 2, 183 nM; on Carbonic anhydrase 4 it was 1930 nM; at Carbonic anhydrase 7 it was 124 nM; at Carbonic anhydrase 9 it was 32 nM.
